Measured values taken from patent publication US8178579B2, “Dioxanes and uses thereof” (President and Fellows of Harvard College, priority 2001, dated 2012).

Tested on: histone deacetylation
Test: acetylated lysine / acetylated histone in cells (AcLysine cytoblot, immunofluorescence, Western blot)
Format: cell-based, human
Settings: A549 (also BS-C-1) cells, tubacin, niltubacin 2 μM, histacin 20 μM, library ~2-5 μM, 18 h
Procedure: A549 cells were seeded at a density of 4,000 cells/50 μl in DMEM+ in white tissue culture-treated 384-well plates (Nalge Nunc) using a Multidrop 384 liquid dispenser (Labsystems). Library small molecules were pinned twice (100-150 nl/pin) from ˜1 mM stock solutions (DMSO) and incubated for 18 hours. For the ITSA1+AcTubulin assay, ITSA1 (50 μM) was added four hours after pin-transfer of library molecules. Media was aspirated with a 16-channel wand. For the acetylated α-tubulin cytoblot (AcTubulin), 40 μl/well of fixation solution (3.7% formaldehyde (1:10 from 37% stock) in Tris-buffered saline (TBS, 0.15 M NaCl, 0.02 M Tris-Cl, pH 7.4) was added and plates incubated for twenty minutes at room temperature. After aspiration, 30 μl 100% methanol (−20° C.) was added and incubated for five minutes at room temperature. After aspirating and washing three times with 90 μl of antibody dilution buffer (ADB, TBS/2% bovine serum albumin, 0.1% TritonX-100) the wells were blocked for twenty minutes in ADB. After aspirating, 20 μl/well of ADB containing anti-acetylated α-tubulin antibody (mouse; 1:1000) and anti-mouse IgG horseradish peroxidase (HRP)-conjugated antibody (1:750) was added and incubated overnight (4° C.). For the anti-acetyl lysine cytoblot (AcLysine), 40 μl/well of fixation solution (95% ethanol/5% acetic acid, −20° C.) was added and plates incubated for five minutes at room temperature. Wells were aspirated, washed, and blocked in ADB as for the AcTubulin protocol. After aspirating, 20 μl/well of ADB containing anti-acetylated lysine (rabbit; 1:375) and anti-rabbit IgG-HRP conjugated antibody (1:750) was added and incubated overnight (4° C.). For the anti-acetylated histone H3 (AcHistH3) and anti-acetylated histone H4 (AcHistH4) cytoblots, cells were fixed, washed, and blocked in ADB as for the AcLysine cytoblot. After aspirating, 20 μl/well of ADB containing anti-acetylated histone H3 antibody (rabbit, 1:500) or anti-acetylated histone H4 antibody (rabbit, 1:500) was added and incubated for two hours at room temperature. Wells were aspirated and washed twice with 80 μl of ADB. After aspirating, 20 μl/well of ADB containing anti-rabbit IgG-HRP conjugated antibody (1:1000) was added and incubated for two hours (room temperature). For the AcTubulin and AcLysine assays, plates were washed three times with TBS before adding 20 μl/well of enhanced chemiluminescent (ECL) mixture. For the AcHistH3 and AcHistH4 assays, plates were washed three times with 80 μl TBS with 1% Triton X-100 and once with 80 μl TBS before adding 20 μl/well of ECL mixture. Plates were read on an Analyst plate reader (LJL Biosystems) with an integration time of 0.1 seconds.
1,3-dioxanes from single polystyrene macrobeads were prepared as 1-2 mM stock solutions in DMSO as described [Hubbert, C., Guardiola, A., Shao, R., Kawaguchi, Y., Ito, A., Nixon, A., Yoshida, M., Wang, X. F., and Yao, T. P. (2002). HDAC6 is a microtubule-associated deacetylase. Nature 417, 455-458]. Bead decoding and structure determination were as described [See for example, Hubbert, C., Guardiola, A., Shao, R., Kawaguchi, Y., Ito, A., Nixon, A., Yoshida, M., Wang, X. F., and Yao, T. P. (2002). HDAC6 is a microtubule-associated deacetylase. Nature 417, 455-458; and Piperno, G., LeDizet, M., and Chang, X. J. (1987). Microtubules containing acetylated alpha-tubulin in mammalian cells in culture. J. Cell Biol. 104, 289-302]. Small molecules (˜2-5 μM) of interest were retested using a sample from the plate of stock solutions by fluorescence microscopy and comparison to the effects of trichostatin (300 nM to 1 μM).
A549 cells were seeded at a density of 50,000/200 μl in DMEM+ on the surface of glass coverslips on top of Parafilm in a 10 cm dish and allowed to attach overnight. For detection of acetylated α-tubulin, cells were permeabilized and fixed with 100 mM K-PIPES, pH 6.8, 10 mM EGTA, 1 mM MgCl2, 0.2% triton X-100, 0.2% glutaraldehyde for fifteen minutes. […]

Row | Compound | effect on histone deacetylation / lysine or histone acetylation in cells | effect on histone deacetylation / lysine or histone acetylation in cells (listed as 415 N3) | effect on histone deacetylation / lysine or histone acetylation in cells (listed as JCWII114)
1 | CC(/C=C/C(=O)NO)=C\[C@@H](C)C(=O)c1ccc(N(C)C)cc1 [TSA, trichostatin A, reference compound] | an inhibitor of both α-tubulin and histone deacetylation | – | –
2 | O=C(CCCCCCC(=O)Nc1ccc([C@@H]2OC(c3ccc(CO)cc3)C[C@H](CSc3nc(-c4ccccc4)c(-c4ccccc4)o3)O2)cc1)NO (stereo partly shown) [tubacin] | did not affect histone acetylation | no effect on lysine acetylation | no visible effect on histone deacetylation
